In the supplement of paper PMC11616607:

Assays:
Assay in all cases: drug sensitivity score (DSS) from 5-point dose-response viability curve (DSS (area-under-curve based score)); higher = more sensitive (stronger growth inhibition or killing); extreme values may be limits of the assay
Conditions in all cases: exposure time: 72 h; concentration range: 5 concentrations over 10,000-fold range
CAOV3 = test system: CAOV3
Procedure, shortened: (§1)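 Ovarian cancer and normal ovarian cell lines were tested in 384-well plates, with drugs dispensed acoustically (Echo 550) in DMSO or water at five concentrations covering a 10,000-fold range. After 1,500 cells per well were added, plates were incubated for 3 days at 37°C and 5% CO2, and viability was read by CellTiter-Glo luminescence on a PHERAstar FS. Breeze software gave a drug sensitivity score for each cell line and drug, where a higher score means greater sensitivity. A value of zero means no response.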

COV318 = test system: COV318
Procedure, shortened: as §1

COV362 = test system: COV362
Procedure, shortened: as §1

HOSE1C = test system: HOSE1C
Procedure, shortened: as §1

HOSE2C = test system: HOSE2C
Procedure, shortened: as §1

JHOS2 = test system: JHOS2
Procedure, shortened: as §1

Kuramochi = test system: Kuramochi
Procedure, shortened: as §1

OV90 = test system: OV90
Procedure, shortened: as §1

OVCAR4 = test system: OVCAR4
Procedure, shortened: as §1

OVCAR5 = test system: OVCAR5
Procedure, shortened: as §1

OVCAR8 = test system: OVCAR8
Procedure, shortened: as §1

Ovsaho = test system: Ovsaho
Procedure, shortened: as §1

Compound	drug sensitivity score (CAOV3)	drug sensitivity score (COV318)	drug sensitivity score (COV362)	drug sensitivity score (HOSE1C)	drug sensitivity score (HOSE2C)	drug sensitivity score (JHOS2)	drug sensitivity score (Kuramochi)	drug sensitivity score (OV90)	drug sensitivity score (OVCAR4)	drug sensitivity score (OVCAR5)	drug sensitivity score (OVCAR8)	drug sensitivity score (Ovsaho)
C/C(=C\c1csc(C)n1)[C@@H]1C[C@@H]2O[C@]2(C)CCC[C@H](C)[C@H](O)[C@@H](C)C(=O)C(C)(C)[C@@H](O)CC(=O)N1 [Ixabepilone]	4.6	2.9	1.3	1.6	2	2.7	2.6	2.4	2.1	4.5	5.2	2
O=C1CN2Cc3c(ccc(Cl)c3Cl)N=C2N1 [Anagrelide]	0	0	0	0	0	0	0	0	0	0	0	0
CC1=C2C[C@H]3[C@@H](CC[C@@H]4C[C@H](NS(C)(=O)=O)CC[C@@]43C)[C@@H]2CC[C@@]2(C1)O[C@@H]1C[C@H](C)CN[C@H]1[C@H]2C [Saridegib]	0.5	0	0	2.3	0.1	0	0	0	0	0	0.4	0
O=C(Nc1ccncc1)C(=O)c1cn(Cc2ccc(Cl)cc2)c2ccccc12 [Indibulin]	7.2	2.5	1.8	20.1	18.3	6.8	7.2	5.9	5.5	5.7	6.4	7.9
O=c1[nH]cc(F)c(=O)[nH]1 [Fluorouracil]	2	0	0	2.5	0	0	0.6	2.3	0	2.7	2.3	2.6
Cc1c(-c2c(-c3ccc(F)o3)sc3ncnc(O[C@H](Cc4ccccc4OCc4ccnn4CC(F)(F)F)C(=O)O)c23)ccc(OCCN2CCN(C)CC2)c1Cl	0	0.2	0.4	0	0	0	0	0.1	0.6	0.1	0	0
NCCNc1ccc(NCCN)c2c1C(=O)c1ccncc1C2=O [Pixantrone]	0	0	0	0	0	0	0.1	0.1	0	0	0.4	0.3
Cc1ccc(C(=O)Nc2ccc(Oc3cc4cnn(C)c4cc3-c3cn[nH]c3)c(F)c2)c(=O)n1-c1ccc(F)cc1 [Merestinib]	0	0	0	0	0	2.4	1.1	0.6	0.4	0.9	0.1	0
Nc1ncnc2c1c(COc1cccc(Cl)c1)nn2C1CCOCC1	0	0	0	0	0	0	0.3	0	0	0.6	0	0
CN1CCN(c2ccc3nc(-c4c(N)c5c(F)cccc5[nH]c4=O)[nH]c3c2)CC1 [Dovitinib]	0	0	0	0	0	0	0	0	0.6	0	0	0
O=C1CCC(N2C(=O)c3ccccc3C2=O)C(=O)N1 (stereo unspecified) [Thalidomide]	0	0	0	0	0	0	0	0	0	0	0	0
Nc1cc(F)ccc1NC(=O)c1ccc(CNC(=O)/C=C/c2cccnc2)cc1 [Tucidinostat]	4.3	3.9	0	14.7	10.8	3.5	2.1	7.2	1.7	7	8	3
NC(=O)/C(=C/n1cnc(-c2cc(C(F)(F)F)cc(C(F)(F)F)c2)n1)c1cncnc1 [Eltanexor]	18.9	7.5	10.9	34.6	15.7	19	10.9	13.2	13.7	14.8	21.5	19.3
C[C@H]1CN(C2COC2)CCN1c1ccc(Nc2cc(-c3ccnc(N4CCn5c(cc6c5CC(C)(C)C6)C4=O)c3CO)cn(C)c2=O)nc1 [GDC-0853]	0	0	0	0	0	0	0	0	0	0	0	0
Nc1nccc(-c2c(-c3ccc(F)cc3)ncn2C2CCCCC2)n1	1.7	0	0	1.6	0.9	0	0.1	0	0	1.9	0.7	0
CN(C)C(=O)c1ccc(S(=O)(=O)c2ccc(NC(=O)[C@@](C)(O)C(F)(F)F)c(Cl)c2)cc1 [AZD7545]	1.1	0	0	0	0.4	0	0	0	0	0	2.2	0
c1cn2cc(-c3ccc4cn[nH]c4c3)nc(Nc3ccc(N4CCOCC4)cc3)c2n1 [Entospletinib]	0	0	0	0	0	0.1	0	0	0	1.3	1.7	0
CNC(=O)c1ccc2cc([C@@]3(O)CCn4cncc43)ccc2c1 [Orteronel]	0	0	0	0	0	0	0	0	0	0	0	0
O=c1[nH]c(=O)n([C@H]2C[C@H](O)[C@@H](CO)O2)cc1F [Floxuridine]	14.3	0	5.4	4.7	2.5	0.8	8.7	12.3	9.3	8.1	18.1	6.2
CNS(=O)(=O)Nc1nccc(Cc2c(C)c3ccc(Oc4ncccn4)cc3oc2=O)c1F	3.3	0	0	0	0	0	0	6.3	1.7	0	0	0.3
NS(=O)(=O)OC[C@@H]1C[C@@H](n2ccc3c(N[C@H]4CCc5ccccc54)ncnc32)C[C@@H]1O [Pevonedistat]	25.6	3.5	8.7	17.2	22.6	15	7.8	16.2	2.6	6.3	16.3	6.1
Nc1cc(COc2c(Cl)cc(C[C@H](N)C(=O)O)cc2Cl)c2oc(-c3ccccc3)nc2c1 [JPH203]	0	0	0	0	0	0	0	0	0.2	7.5	0	0
CC(C)C(=O)Nc1ccc([N+](=O)[O-])c(C(F)(F)F)c1 [Flutamide]	0	0.2	0	0.2	0	0.3	0.7	0	0.5	0.1	0.3	0
O=C(CCCCCCC(=O)Nc1ccccc1)NO [Vorinostat]	8.6	4.3	3.2	15.9	10.7	5.3	4.7	8	4.7	10.8	9.7	2.7
Cc1cc(Nc2ncnc3ccc(NC4=NC(C)(C)CO4)cc23)ccc1Oc1ccn2ncnc2c1 [Tucatinib]	0	0	0	0	0	0	0	0	0	0	0	0
N#Cc1ccc2[nH]c(O)c(-c3ccc(CN4CCOCC4)cn3)c2c1 [AZD-1080]	0.9	0	0	0	0.3	0	0	0	0	0	0	0
COc1cc2c(Nc3ccc(Cl)c(Cl)c3F)ncnc2cc1OC[C@@H]1C[C@@H]2CN(C)C[C@@H]2C1 [Tesevatinib]	8.4	0	0.9	1.6	0	0.1	1.2	0	1.6	5	1.3	2.2
Cn1nnc2c(C(N)=O)ncn2c1=O [Temozolomide]	0	0	0	0	0.5	0	0	0	0	0	0	0
